Patent US11420956B2, “Ureas having Androgen Receptor degradation activity and uses thereof” (ACCUTAR BIOTECHNOLOGY INC., priority 2019, dated 2022)

Target: T1, androgen receptor (AR) (Homo sapiens, UniProt P10275, T878A)
T1 construct: endogenous in cells; host or cells: LNCAP
T1 sequence (P10275 1-920 T878A): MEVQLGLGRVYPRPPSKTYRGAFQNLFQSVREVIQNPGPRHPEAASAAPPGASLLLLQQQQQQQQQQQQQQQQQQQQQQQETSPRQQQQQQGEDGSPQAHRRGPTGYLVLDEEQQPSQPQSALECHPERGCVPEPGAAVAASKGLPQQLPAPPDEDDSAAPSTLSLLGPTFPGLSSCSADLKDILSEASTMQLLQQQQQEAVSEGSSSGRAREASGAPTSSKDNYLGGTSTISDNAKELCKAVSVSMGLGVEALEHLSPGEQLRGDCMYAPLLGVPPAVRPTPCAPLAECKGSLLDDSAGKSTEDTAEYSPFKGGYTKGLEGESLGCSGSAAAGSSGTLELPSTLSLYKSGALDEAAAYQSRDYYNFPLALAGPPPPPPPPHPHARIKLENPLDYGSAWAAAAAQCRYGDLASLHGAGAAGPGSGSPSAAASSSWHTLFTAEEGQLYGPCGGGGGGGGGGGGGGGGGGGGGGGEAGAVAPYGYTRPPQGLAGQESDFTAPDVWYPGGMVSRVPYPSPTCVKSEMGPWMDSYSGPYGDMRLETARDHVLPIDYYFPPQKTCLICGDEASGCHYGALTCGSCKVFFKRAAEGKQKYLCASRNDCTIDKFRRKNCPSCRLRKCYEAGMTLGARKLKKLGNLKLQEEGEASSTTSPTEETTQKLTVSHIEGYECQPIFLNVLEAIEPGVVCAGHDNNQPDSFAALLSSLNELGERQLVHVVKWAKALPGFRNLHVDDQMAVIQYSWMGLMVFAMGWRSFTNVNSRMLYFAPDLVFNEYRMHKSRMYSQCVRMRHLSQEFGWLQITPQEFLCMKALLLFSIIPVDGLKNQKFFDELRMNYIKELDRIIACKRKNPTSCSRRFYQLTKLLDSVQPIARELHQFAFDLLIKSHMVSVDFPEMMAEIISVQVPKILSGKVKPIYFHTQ
Assay: AR degradation in LNCAP cells (Western blot)
Format: cell-based
Conditions: 24 hours after administration
Description: LNCAP, VCAP and 22Rv1 cells were plated in 24-well plates at 1.5×10E5 cells/well in the RPMI growth medium containing 10% FBS and 1% Penicillin Streptomycin, and then incubated at 37° C. overnight. The following day, the test compound was administered to the cells by using 1000× compound stock solution prepared in DMSO at various concentrations. After administration of the compound, the cells were then incubated at 37° C. for 24 hours. Upon completion, the cells were washed with PBS and protein was collected in Laemmli sample buffer (1×; VWR International). Proteins in cell lysate were separated by SDS-PAGE and transferred to Odyssey nitrocellulose membranes (Licor) with iblot® dry blotting transfer system (ThermoFisher). Nonspecific binding was blocked by incubating membranes with Intercept Blocking Buffer (Licor) for 1 hour at room temperature with gentle shaking. The membranes were then incubated overnight at 4° C. with Primary antibodies rabbit anti-AR (1:1,000, Cell Signaling, 5153) and mouse anti-GAPDH (1:5,000, Santa Cruz Biotechnology, sc-47724) diluted in Intercept Blocking Buffer containing 0.1% Tween 20. After washing 3 times with TBS-T, the membranes were incubated with IRDye® […] goat anti-mouse IgG (1:20,000, Licor) or IRDye® […] goat anti-rabbit IgG (1:20,000, Licor) for 1 hour. After TBS-T washes, membranes were rinsed in TBS and scanned on Odyssey® CLx Imaging System (Licor). The bands were quantified using Image Studio™ Software (Licor).
Tables 5 and 6 summarize the androgen receptor (AR) degradative activity of exemplary compounds in LNCAP, VCAP and 22Rv1 cell lines 24 hours after administration. DC50: compound concentration needed for 50% target protein degradation.

| SMILES | DC50 [nM] |
| --- | --- |
| COc1cc(N2C[C@@H](C)N(C(=O)Nc3ccc(N4CCC(CN5CCN(c6cc7c(cc6F)C(=O)N(C6CCC(=O)NC6=O)C7=O)CC5)CC4)nc3)C[C@@H]2C)ccc1C#N (stereo partly drawn) [Compound 1-39, (2R,5S)-4-(4-cyano-3-methoxyphenyl)-N-(6-(4-((4-(2-(2,6-dioxopiperidin-3-yl)-6-fluoro-1,3-dioxoisoindolin-5-yl)piperazin-1-yl)methyl)piperidin-1-yl)pyridin-3-yl)-2,5-dimethylpiperazine-1-carboxamide] | ≤ 10 |
| C[C@@H]1CN(c2ccc(C#N)c(Cl)c2)[C@@H](C)CN1C(=O)Nc1ccc(N2CCC(CN3CCN(c4ccc5c(c4)C(=O)N(C4CCC(=O)NC4=O)C5=O)CC3)CC2)nc1 (stereo partly drawn) [Compound 1-13, (2R,5S)-4-(3-chloro-4-cyanophenyl)-N-(6-(4-((4-(2-(2,6-dioxopiperidin-3-yl)-1,3-dioxoisoindolin-5-yl)piperazin-1-yl)methyl)piperidin-1-yl)pyridin-3-yl)-2,5-dimethylpiperazine-1-carboxamide] | ≤ 10 |
| C[C@@H]1CN(c2ccc(C#N)c3ncccc23)[C@@H](C)CN1C(=O)Nc1ccc(N2CCC(CN3CCN(c4ccc5c(c4)C(=O)N(C4CCC(=O)NC4=O)C5=O)CC3)CC2)nc1 (stereo partly drawn) [Compound 2-9, (2R,5S)-4-(8-cyanoquinolin-5-yl)-N-(6-(4-((4-(2-(2,6-dioxopiperidin-3-yl)-1,3-dioxoisoindolin-5-yl)piperazin-1-yl)methyl)piperidin-1-yl)pyridin-3-yl)-2,5-dimethylpiperazine-1-carboxamide] | > 100 |
| C[C@@H]1CN(c2ccc(C#N)c(C(F)(F)F)c2)[C@@H](C)CN1C(=O)Nc1ccc(N2CCC(CN3CCN(c4ccc5c(c4)CN([C@H]4CCC(=O)NC4=O)C5=O)CC3)CC2)c(F)c1 [Compound 1-50, (2R,5S)-4-(4-cyano-3-(trifluoromethyl)phenyl)-N-(4-(4-((4-(2-((S)-2,6-dioxopiperidin-3-yl)-1-oxoisoindolin-5-yl)piperazin-1-yl)methyl)piperidin-1-yl)-3-fluorophenyl)-2,5-dimethylpiperazine-1-carboxamide] | ≤ 10 |
| COc1cc(N2C[C@@H](C)N(C(=O)Nc3ccc(N4CCC(CN5CCN(c6ccc7c(c6)CN([C@H]6CCC(=O)NC6=O)C7=O)CC5)CC4)nc3)C[C@@H]2C)ccc1C#N [Compound 1-33, (2R,5S)-4-(4-cyano-3-methoxyphenyl)-N-(6-(4-((4-(2-((S)-2,6-dioxopiperidin-3-yl)-1-oxoisoindolin-5-yl)piperazin-1-yl)methyl)piperidin-1-yl)pyridin-3-yl)-2,5-dimethylpiperazine-1-carboxamide] | ≤ 10 |
| C[C@@H]1CN(c2ccc(C#N)c(Cl)c2)[C@@H](C)CN1C(=O)Nc1ccc(N2CCC(CN3CCN(c4cc5c(cc4F)C(=O)N([C@H]4CCC(=O)NC4=O)C5)CC3)CC2)c(F)c1 [Compound 1-56, (2R,5S)-4-(3-chloro-4-cyanophenyl)-N-(4-(4-((4-(2-((S)-2,6-dioxopiperidin-3-yl)-6-fluoro-1-oxoisoindolin-5-yl)piperazin-1-yl)methyl)piperidin-1-yl)-3-fluorophenyl)-2,5-dimethylpiperazine-1-carboxamide] | ≤ 10 |
| C[C@@H]1CN(c2ccc(C#N)c(Cl)c2)[C@@H](C)CN1C(=O)Nc1ccc(N2CCC(CN3CCN(c4ccc5c(c4)CN([C@H]4CCC(=O)NC4=O)C5=O)CC3)CC2)c(F)c1 [Compound 1-46, (2R,5S)-4-(3-chloro-4-cyanophenyl)-N-(4-(4-((4-(2-((S)-2,6-dioxopiperidin-3-yl)-1-oxoisoindolin-5-yl)piperazin-1-yl)methyl)piperidin-1-yl)-3-fluorophenyl)-2,5-dimethylpiperazine-1-carboxamide] | ≤ 10 |
| C[C@@H]1CN(c2ccc(C#N)c(C(F)(F)F)c2)[C@@H](C)CN1C(=O)Nc1ccc(N2CCC(CN3CCN(c4ccc5c(c4)C(=O)N(C4CCC(=O)NC4=O)C5=O)CC3)CC2)c(F)c1 (stereo partly drawn) [Compound 1-45, (2R,5S)-4-(4-cyano-3-(trifluoromethyl)phenyl)-N-(4-(4-((4-(2-(2,6-dioxopiperidin-3-yl)-1,3-dioxoisoindolin-5-yl)piperazin-1-yl)methyl)piperidin-1-yl)-3-fluorophenyl)-2,5-dimethylpiperazine-1-carboxamide] | ≤ 10 |
| C[C@@H]1CN(c2ccc(C#N)c3ncccc23)[C@@H](C)CN1C(=O)Nc1ccc(N2CCC(CN3CCN(c4ccc5c(c4)C(=O)N(C4CCC(=O)NC4=O)C5=O)CC3)CC2)c(F)c1 (stereo partly drawn) [Compound 2-12, (2R,5S)-4-(8-cyanoquinolin-5-yl)-N-(4-(4-((4-(2-(2,6-dioxopiperidin-3-yl)-1,3-dioxoisoindolin-5-yl)piperazin-1-yl)methyl)piperidin-1-yl)-3-fluorophenyl)-2,5-dimethylpiperazine-1-carboxamide] | > 100 |
| C[C@@H]1CN(c2ccc(C#N)c(Cl)c2)[C@@H](C)CN1C(=O)Nc1ccc(N2CCC(CCN3CCN(c4ccc5c(c4)C(=O)N(C4CCC(=O)NC4=O)C5=O)CC3)CC2)nc1 (stereo partly drawn) [Compound 1-19, (2R,5S)-4-(3-chloro-4-cyanophenyl)-N-(6-(4-(2-(4-(2-(2,6-dioxopiperidin-3-yl)-1,3-dioxoisoindolin-5-yl)piperazin-1-yl)ethyl)piperidin-1-yl)pyridin-3-yl)-2,5-dimethylpiperazine-1-carboxamide] | ≤ 10 |
| C[C@@H]1CN(c2ccc(C#N)c3ncccc23)[C@@H](C)CN1C(=O)Nc1ccc(N2CCC(CN3CCN(c4ccc5c(c4)CN([C@H]4CCC(=O)NC4=O)C5=O)CC3)CC2)c(F)c1 [Compound 2-21, (2R,5S)-4-(8-cyanoquinolin-5-yl)-N-(4-(4-((4-(2-((S)-2,6-dioxopiperidin-3-yl)-1-oxoisoindolin-5-yl)piperazin-1-yl)methyl)piperidin-1-yl)-3-fluorophenyl)-2,5-dimethylpiperazine-1-carboxamide] | > 100 |
| CC(C)N(CC1CCN(c2ncc(NC(=O)N3C[C@H](C)N(c4ccc(C#N)c5ncccc45)C[C@H]3C)cn2)CC1)C1CC(Oc2ccc3c(c2)C(=O)N(C2CCC(=O)NC2=O)C3=O)C1 (stereo partly drawn) [Compound 2-14, (2R,5S)-4-(8-cyanoquinolin-5-yl)-N-(2-(4-((((1r,3r)-3-((2-(2,6-dioxopiperidin-3-yl)-1,3-dioxoisoindolin-5-yl)oxy)cyclobutyl)(isopropyl)amino)methyl)piperidin-1-yl)pyrimidin-5-yl)-2,5-dimethylpiperazine-1-carboxamide] | ≤ 10 |
| CCN(CC1CCN(c2ccc(NC(=O)N3C[C@H](C)N(c4ccc(C#N)c(Cl)c4)C[C@H]3C)cn2)CC1)C1CC(Oc2ccc3c(c2)C(=O)N(C2CCC(=O)NC2=O)C3=O)C1 (stereo partly drawn) [Compound 1-10, (2R,5S)-4-(3-chloro-4-cyanophenyl)-N-(6-(4-((((1r,3r)-3-((2-(2,6-dioxopiperidin-3-yl)-1,3-dioxoisoindolin-5-yl)oxy)cyclobutyl)(ethyl)amino)methyl)piperidin-1-yl)pyridin-3-yl)-2,5-dimethylpiperazine-1-carboxamide] | 10 to 100 |
| COc1cc(N2C[C@@H](C)N(C(=O)Nc3ccc(N4CCC(CN5CCN(c6cc7c(cc6F)C(=O)N([C@H]6CCC(=O)NC6=O)C7)CC5)CC4)c(F)c3)C[C@@H]2C)ccc1C#N [Compound 1-55, (2R,5S)-4-(4-cyano-3-methoxyphenyl)-N-(4-(4-((4-(2-((S)-2,6-dioxopiperidin-3-yl)-6-fluoro-1-oxoisoindolin-5-yl)piperazin-1-yl)methyl)piperidin-1-yl)-3-fluorophenyl)-2,5-dimethylpiperazine-1-carboxamide] | ≤ 10 |
